Patent publication US9150567B2, “Substituted tetrazol-1-yl-phenoxymethyl-thiazol-2-yl-piperidinyl-pyrimidine salts” (CYMABAY THERAPEUTICS, INC., priority 2009, dated 2015)
Where “and” joins values, the source holds several entries; their conditions need not be identical. Equal entries are not always repeated. Structures can show the parent of a compound that is named as a salt. Where two headings read alike, the source gives them in different places. Blank lines part the entries; values can stand above or below the molecule they belong to.

Columns and labels:
[1] = Systemic exposure and pharmacokinetics after single oral gavage dose of 200 mg/kg in fasted male SD rats; format: in vivo, Sprague Dawley (SD) rats; conditions: for Fold difference in plasma concentration compared to micronized free-base form: 30 hours post-dose; for Fold difference in plasma concentration compared to micronized free-base form / Increase of systemic drug exposure in AUC0-t compared with micro MBX-2982 (free base): male SD rats; for Increase of systemic drug exposure in AUC0-t compared with micro MBX-2982 (free base): equivalent amounts
Protocol: Two studies were conducted in order to compare the systemic exposure and pharmacokinetics (PK) of microcrystalline MBX-2982 and salt forms of MBX-2982 in fasted male Sprague Dawley (SD) rats following single oral gavage (PO) doses of 200 mg/kg. Four salt foms of MBX-2982 were investigate in the studies. The tested salts were HCl Form I, HCl salt Form II, mesylate salt and the tosylate salt.
Preparation of samples was performed by solvent precipitation of plasma proteins in a 1 mL/well 96-well plate. Standards were prepared by spiking 10 μL of blank plasma with 10 μL of standard solution (acetonitrile containing MBX-2982 at 0.01, 0.02, 0.05, 0.1, 0.2, 0.5, 1, 2, 5, 10, 20, 50 and 100 μg/mL) and 300 μL of 0.1% formic acid in acetonitrile containing 0.2 μg/mL internal standard. Plasma samples were prepared by adding 10 μL of plasma sample, 10 μL of acetonitrile, and 300 μL of 0.2 μg/mL internal standard in 0.1% formic acid in acetonitrile. After addition of the organic solvents, all samples were vortexed briefly and centrifuged at 3600 rpm for 10 minutes. Some of the samples were diluted 1.3 to 2-fold with blank plasma. An aliquot of the supernatant (25 μL) was transfer to a 1 mL/well 96-well plate and mixed with 200 μL water/ACN (50/50, v/v) and injected into the HPLC.
The suspensions for microcrystalline MBX-2982 (free base) and salt forms of MBX-2982 were prepared in 1% carboxymethylcellulose and 2% tween 80 in water (w/w/v).
Five groups of animals were given microcrystalline and salt forms suspension doses of MBX-2982 orally at 200 mg/kg, respectively. Food was withheld the night before dose and returned nine hours after dosing. Blood samples were collected at 0.25, 0.5, 1, 2, 4, 6, 9, 24, 30 and 48 h post dose. MBX-2982 plasma concentration from these samples was analyzed by a non-validated high performance liquid chromatography in conjunction with mass spectrometry (LC-MS/MS) method.
Plasma concentration-time data for individual animals were analyzed using WinNonlin software (Professional, version 5.0.1; Pharsight Corp.). A non-compartmental model (model 200) was used. Peak area ratios of MBX-2982 to internal standard and concentration were fitted to a quadratic equation (Calibration Curve) with 1/x weighting using a quadratic regression program in Analyst version 1.4.2 (Applied Biosystem Inc). The equations were then used to interpolate the concentrations of MBX-2982 in samples from peak area to internal standard ratio.
The following pharmacokinetic parameters were calculated: • 1) Cmax: Maximum (peak) plasma concentration • 2) Tmax: Time at which Cmax occurred • 3) t1/2: Terminal phase half-life • 4) AUC0-t: Area under the concentration-time curve from time 0 to last measurable concentration • 5) AUC0-inf: Area under the concentration-time curve from time 0 extrapolated to infinity

[2] = Overnight / elevated RH stress of the crystalline salts; format: physicochemical; conditions: overnight / elevated relative humidity stress
[3] = 0.5 h post dose, fasted male SD rats, PO 200 mg/kg, mean ± SD
[4] = 1 h post dose, fasted male SD rats, PO 200 mg/kg, mean ± SD
[5] = 2 h post dose, fasted male SD rats, PO 200 mg/kg, mean ± SD
[6] = 24 h post dose, fasted male SD rats, PO 200 mg/kg, mean ± SD
[7] = 30 h post dose, fasted male SD rats, PO 200 mg/kg, mean ± SD
[8] = 48 h post dose, fasted male SD rats, PO 200 mg/kg, mean ± SD
[9] = PO 200 mg/kg, listed as HCl form II, hydrochloride
[10] = fasted male SD rats, single PO dose 200 mg/kg, mean ± SD, hydrochloride
[11] = fasted male SD rats, single PO dose 200 mg/kg, mean ± SD

Mean plasma concentration of MBX-2982 [1, 3]: 3890 ± 950 ng/mL | Mean plasma concentration of MBX-2982 [1, 4]: 6700 ± 1270 ng/mL | Mean plasma concentration of MBX-2982 [1, 5]: 11600 ± 1610 ng/mL | Mean plasma concentration of MBX-2982 [1, 6]: 260 ng/mL and 260 ± 280 ng/mL | Mean plasma concentration of MBX-2982 [1, 7]: 80 ng/mL and 80 ± 60 ng/mL | Mean plasma concentration of MBX-2982 [1, 8]: 160 ± 300 ng/mL | concentration at 4 h ([1]; male, Sprague-Dawley, rat, plasma, po, 4 h post dose, fasted male SD rats, PO 200 mg/kg, mean ± SD, read-out: Mean plasma concentration of MBX-2982): 15800 ± 3740 ng/mL | concentration at 6 h ([1]; male, Sprague-Dawley, rat, plasma, po, 6 h post dose, fasted male SD rats, PO 200 mg/kg, mean ± SD, read-out: Mean plasma concentration of MBX-2982): 15900 ± 4940 ng/mL | concentration at 9 h ([1]; male, Sprague-Dawley, rat, plasma, po, 9 h post dose, fasted male SD rats, PO 200 mg/kg, mean ± SD, read-out: Mean plasma concentration of MBX-2982): 15000 ± 5900 ng/mL | half-life ([1]; male, Sprague-Dawley, rat, plasma, po, fasted male SD rats, single PO dose 200 mg/kg, mean ± SD): 3.53 ± 0.7 h | AUC(0-t) ([1]; male, Sprague-Dawley, rat, plasma, po, fasted male SD rats, single PO dose 200 mg/kg, mean ± SD, read-out: AUC0-24): 233 ± 64.8 µg·h/mL | AUC(0-t) ([1]; male, Sprague-Dawley, rat, plasma, po, fasted male SD rats, single PO dose 200 mg/kg, mean ± SD, read-out: AUC0-t): 236 ± 64.6 µg·h/mL | Cmax ([1]; male, Sprague-Dawley, rat, plasma, po, fasted male SD rats, single PO dose 200 mg/kg, mean ± SD, read-out: Cmax): 17400 ± 4190 ng/mL | Tmax ([1]; male, Sprague-Dawley, rat, plasma, po, fasted male SD rats, single PO dose 200 mg/kg, mean ± SD, read-out: Tmax): 5.88 ± 1.55 h
SMILES: CCc1cnc(N2CCC(c3nc(COc4ccc(-n5cnnn5)cc4)cs3)CC2)nc1 [MBX-2982, 5-ethyl-2-{4-[4-(4-tetrazol-1-yl-phenoxymethyl)-thiazol-2-yl]-piperidin-1-yl}-pyrimidine]

Appearance of the material after RH stress [2]: turned tacky
SMILES: CCc1cnc(N2CCC(c3nc(COc4ccc(-n5cnnn5)cc4)cs3)CC2)nc1 [sulfate salt, 5-ethyl-2-{4-[4-(4-tetrazol-1-yl-phenoxymethyl)-thiazol-2-yl]-piperidin-1-yl}-pyrimidine]

Mean plasma concentration of MBX-2982 ([1]; 0.5 h post dose, fasted male SD rats, PO 200 mg/kg, mean ± SD, hydrochloride): 8060 ± 1610 ng/mL | Mean plasma concentration of MBX-2982 ([1]; 1 h post dose, fasted male SD rats, PO 200 mg/kg, mean ± SD, hydrochloride): 16300 ± 2770 ng/mL | Mean plasma concentration of MBX-2982 ([1]; 2 h post dose, fasted male SD rats, PO 200 mg/kg, mean ± SD, hydrochloride): 23700 ± 4220 ng/mL | Mean plasma concentration of MBX-2982 ([1]; 4 h post dose, fasted male SD rats, PO 200 mg/kg, mean ± SD, hydrochloride): 29200 ± 3710 ng/mL | Mean plasma concentration of MBX-2982 ([1]; 6 h post dose, fasted male SD rats, PO 200 mg/kg, mean ± SD, hydrochloride): 29100 ± 8130 ng/mL | Mean plasma concentration of MBX-2982 ([1]; 9 h post dose, fasted male SD rats, PO 200 mg/kg, mean ± SD, hydrochloride): 23200 ± 5700 ng/mL | Mean plasma concentration of MBX-2982 ([1]; 24 h post dose, fasted male SD rats, PO 200 mg/kg, mean ± SD, hydrochloride): 12020 ± 9330 ng/mL | Mean plasma concentration of MBX-2982 ([1]; 24 h post dose, fasted male SD rats, PO 200 mg/kg, mean ± SD, listed as HCl form II, hydrochloride): 12020 ng/mL | Fold difference in plasma concentration compared to micronized free-base form [1, 9]: 186 fold | Mean plasma concentration of MBX-2982 ([1]; 30 h post dose, fasted male SD rats, PO 200 mg/kg, mean ± SD, hydrochloride): 14900 ± 13200 ng/mL | Mean plasma concentration of MBX-2982 ([1]; 30 h post dose, fasted male SD rats, PO 200 mg/kg, mean ± SD, listed as HCl form II, hydrochloride): 14900 ng/mL | Mean plasma concentration of MBX-2982 ([1]; 48 h post dose, fasted male SD rats, PO 200 mg/kg, mean ± SD, hydrochloride): 32.5 ng/mL | AUC0-24 [1, 10]: 482 ± 69.4 µg·h/mL | AUC0-inf [1, 10]: 469 µg·h/mL | AUC(0-t) [1, 10]: 679 ± 208 µg·h/mL | Cmax [1, 10]: 31800 ± 5050 ng/mL | Tmax [1, 10]: 11.5 ± 12.4 h | t1/2 [1, 10]: 2.09 h | Increase of systemic drug exposure in AUC0-t compared with micro MBX-2982 (free base) [1, 9]: 2.9 fold
SMILES: CCc1cnc(N2CCC(c3nc(COc4ccc(-n5cnnn5)cc4)cs3)CC2)nc1.Cl [HCl Salt Form II, 5-ethyl-2-{4-[4-(4-tetrazol-1-yl-phenoxymethyl)-thiazol-2-yl]-piperidin-1-yl}-pyrimidine hydrochloride]

Appearance of the material after RH stress [2]: remained a free flowing powder
SMILES: CCc1cnc(N2CCC(c3nc(COc4ccc(-n5cnnn5)cc4)cs3)CC2)nc1 [HBr salt, 5-ethyl-2-{4-[4-(4-tetrazol-1-yl-phenoxymethyl)-thiazol-2-yl]-piperidin-1-yl}-pyrimidine]

Appearance of the material after RH stress [2]: remained a free flowing powder
SMILES: CCc1cnc(N2CCC(c3nc(COc4ccc(-n5cnnn5)cc4)cs3)CC2)nc1 [esylate salt, 5-ethyl-2-{4-[4-(4-tetrazol-1-yl-phenoxymethyl)-thiazol-2-yl]-piperidin-1-yl}-pyrimidine]

Appearance of the material after RH stress [2]: remained a free flowing powder
SMILES: CCc1cnc(N2CCC(c3nc(COc4ccc(-n5cnnn5)cc4)cs3)CC2)nc1 [camsylate salt, 5-ethyl-2-{4-[4-(4-tetrazol-1-yl-phenoxymethyl)-thiazol-2-yl]-piperidin-1-yl}-pyrimidine]

Appearance of the material after RH stress [2]: remained a free-flowing powder
SMILES: CCc1cnc(N2CCC(c3nc(COc4ccc(-n5cnnn5)cc4)cs3)CC2)nc1 [besylate salt, 5-ethyl-2-{4-[4-(4-tetrazol-1-yl-phenoxymethyl)-thiazol-2-yl]-piperidin-1-yl}-pyrimidine]

Mean plasma concentration of MBX-2982 [1, 3]: 8520 ± 975 ng/mL | Mean plasma concentration of MBX-2982 [1, 4]: 12200 ± 839 ng/mL | Mean plasma concentration of MBX-2982 [1, 5]: 18800 ± 904 ng/mL | Mean plasma concentration of MBX-2982 ([1]; 4 h post dose, fasted male SD rats, PO 200 mg/kg, mean ± SD): 26700 ± 4390 ng/mL | Mean plasma concentration of MBX-2982 ([1]; 6 h post dose, fasted male SD rats, PO 200 mg/kg, mean ± SD): 21800 ± 6480 ng/mL | Mean plasma concentration of MBX-2982 ([1]; 9 h post dose, fasted male SD rats, PO 200 mg/kg, mean ± SD): 18000 ± 5180 ng/mL | Mean plasma concentration of MBX-2982 [1, 6]: 476 ± 344 ng/mL | Mean plasma concentration of MBX-2982 ([1]; 24 h post dose, fasted male SD rats, PO 200 mg/kg, mean ± SD, listed as mesylate): 476 ng/mL | Fold difference in plasma concentration compared to micronized free-base form ([1]; PO 200 mg/kg): 7 fold | Mean plasma concentration of MBX-2982 [1, 7]: 574 ± 641 ng/mL | Mean plasma concentration of MBX-2982 ([1]; 30 h post dose, fasted male SD rats, PO 200 mg/kg, mean ± SD, listed as mesylate): 574 ng/mL | Mean plasma concentration of MBX-2982 [1, 8]: 82 ± 82 ng/mL | AUC0-24 [1, 11]: 314 ± 65.7 µg·h/mL | AUC0-inf [1, 11]: 323 ± 62.0 µg·h/mL | AUC(0-t) [1, 11]: 322 ± 63.6 µg·h/mL | Cmax [1, 11]: 26700 ± 4460 ng/mL | Tmax [1, 11]: 4.50 ± 1.00 h | t1/2 [1, 11]: 4.11 ± 1.29 h | Increase of systemic drug exposure in AUC0-t compared with micro MBX-2982 (free base) ([1]; PO 200 mg/kg): 1.4 fold | Appearance of the material after RH stress [2]: remained a free flowing powder
SMILES: CCc1cnc(N2CCC(c3nc(COc4ccc(-n5cnnn5)cc4)cs3)CC2)nc1 [Mesylate Salt, 5-ethyl-2-{4-[4-(4-tetrazol-1-yl-phenoxymethyl)-thiazol-2-yl]-piperidin-1-yl}-pyrimidine]
